According to patent publication US20250320556A1, “METHODS AND RELATED ASPECTS FOR DIGITAL MULTI-TEMPERATURE FLUOROMETRIC DETECTION” (THE JOHNS HOPKINS UNIVERSITY, priority 2024, published 2025):

Columns and labels:
H23 cell line = experiment: Hypomethylating drug treatment of H23 cells, methylation read out by 15-plex FLAP-Melt; format: cell-based, human; conditions: 500 nM, course of 7 days
Experimental: (§1) FIGS. 24A-24D. Methylation analysis in Aza-treated cell lines. Normalized methylation levels in untreated and 500 nM Aza-treated cells for H23 (A) and H520 (B) cell lines. Relative methylation changes in Aza-treated cells, normalized to untreated controls, are shown as clustered bar plots. Each cluster represents a loci from the 15-plex panel, with bars indicating different time points. (C) H23 cell line. (D) H520 cell line.
(§2) A notable application of digital PCR-based cfDNA tests is longitudinal disease progression monitoring over and after a course of treatment due to the quantification capability of the technology. Next, we sought to evaluate the performance of our assay in detecting multiple methylation biomarkers in real biological samples with a focus on the ability of our assay to quantify methylation level changes. We started with two cancer cell lines, H23 and H520, derived from lung tissues of NSCLC patients. To replicate a typical treatment monitoring scenario, we conducted hypomethylating drug treatment on the cell lines using 5-Azacytidine (5-Aza), a drug that can irreversibly bind to DNA methyltransferase after being incorporated into DNA and inhibits its activity. H520 and H23 were treated with 5-Aza at 500 nM over a course of 5 and 7 days, respectively. […]

H520 cell line = experiment: Hypomethylating drug treatment of H520 cells, methylation read out by 15-plex FLAP-Melt; format: cell-based, human; conditions: 500 nM, course of 5 days
Experimental: as §1, §2

Nc1ncn([C@@H]2O[C@H](CO)[C@@H](O)[C@H]2O)c(=O)n1 [5-Aza, 5-Azacytidine]
confluency rate of treated cells compared with untreated cells (H23 cell line): much lower
methylation level of targets (15-plex panel) in treated cells (H23 cell line; vs untreated cells, majority of the targets): decreasing trend
confluency rate of treated cells compared with untreated cells (H520 cell line): much lower
methylation levels of targets (15-plex panel) in treated cells (H520 cell line; vs untreated cells): decreased overtime
